Measurements reported in US20150031622A1, “RHOGEF12 IS A THERAPEUTIC TARGET FOR THE TREATMENT OF HEART FAILURE” (MAX-PLANCK-GESELLSCHAFT ZUR FÖRDERUNG DER WISSENSCHAFTEN …, priority 2012, published 2015).
Bridges are numbered along the chain shown (N, C = ends). Where no end group is shown, it is not given here.

System: neonatal rat ventricular myocytes (NRVM)
Test: qRT-PCR of hypertrophy-specific genes (ANP, β-MHC) in NRVM
Type: cell-based
Details: NRVM control cells
Protocol: Neonatal rat ventricular myocytes (NRVM) were isolated from 1-2 days old rat neonates using a kit from Worthington Biochemical Corporation (Lakewood, N.J., USA). After digestion, cells were pre-plated for 1 h to remove nonmyocytes, plated on cell culture dishes pre-coated with 1% gelatin (Sigma-Aldrich) and then cultured in Dulbecco's modified Eagle's medium (DMEM) with 10% fetal bovine serum. The following day, cells were cultured in serum-free DMEM medium containing 100 μM 5-bromo 2′-deoxy-uridine (BrdU; Sigma-Aldrich). NRVM were transfected with siRNAs (Qiagen, Chatsworth, Calif., USA or Sigma-Aldrich) using Lipofectamine RNAiMAX (Invitrogen, San Diego, Calif., USA) 3 h and 20 h after plating according to the manufacturer's instructions. […]
RNA was extracted from left ventricles with the RNA fibrosis tissue kit (Qiagen) and from NRVM or adult mouse cardiomyocytes with the RNeasy Mini kit (Qiagen) according to the manufacture's protocol. […] Reverse transcriptase (RT) reaction was performed using the QuantiTect Reverse Transcription kit (Qiagen). Quantitative RT-PCR was performed using the LightCycler 480 Probe Master or LightCycler 480 SYBR Green Master (Roche). […]
Primers for the analysis of RhoGEF expression were used as described previously^40. Data are in all cases presented after normalization to GAPDH, in some cases the relative change compared to basal conditions was calculated.

Substance: endothelin-1 (CSCSSLMDKECVYFCHLDIIW; disulfide 1-15, 3-11; ends not checked; UniProt P05305 53-73, looked up) [ET-1, hypertrophic stimulus, GPCR agonist, purchased from Sigma-Aldrich]
- expression of hypertrophy-specific genes (ANP, β-MHC) after stimulus: increased gene expression
